Reference: patent US12396992B2, “Organic compounds” (INTRA-CELLULAR THERAPIES, INC., priority 2019, dated 2025)
“Also recorded” adds a separate entry of the source.

Columns and labels:
BV2 cells [1] = experiment: ADP-induced chemotaxis of BV2 cells in Boyden chamber; assay type: cell-based, mouse; conditions: 100 μM ADP, 4 hrs
Method: Chemotaxis towards 100 μM ADP was measured in a Boyden chamber system for 4 hrs against a vehicle control. BV2 cells were added to the upper chamber of a 5 μm pore Boyden chamber with 100 μM ADP or vehicle in the lower chamber and incubated at 37′C with 5% CO2 for 4 hours. The curve was fit to a 4-parameter logarithmic equation with the following constraints: top >80% and bottom <20%. […] As shown in the left panel of FIG. 7A, raw fluorescence counts (relative fluorescence units or RFU), representing the cell count in the lower chamber, were used to calculate control conditions. The Vehicle condition represents the minimum migration, in which there was no ADP present. The maximum migration was shown as the 100 μM ADP condition.
The measured potency correlates with documented IC50 values.

P2Y12 = P2Y12 (Homo sapiens, UniProt Q9H244); conditions: P2Y12 inhibitors; read-out: documented IC50; cited from earlier work
BV2 cells [2] = experiment: Quantitative PCR of inflammatory cytokine mRNA in LPS-stimulated BV2 cells; assay type: cell-based, mouse; conditions: for LPS-induced expression of Ccl2 / LPS-induced expression of IL1β / LPS-induced expression of TNFα: FIG. 3a; for Chemokine (C—C) motif Ligand 2 expression / Interleukin 1 beta expression / Tumor necrosis factor expression: BV2 + LPS, Q-PCR, initial results
Method: Levels of IL1 are measured using quantitative PCR of IL1β mRNA. IL1β is considered a marker of inflammation. Results are depicted in FIG. 2 (RQ: relative quantification of changes in gene expression in treated versus control samples; ***p<0.01 vs control, √p<0.01 vs LPS alone; ANOVA with Newman-Keuls post-hoc test).
BV2 cells are pretreated with compound, ITI-214 or rolipram, a PDE4 inhibitor, then stimulated with 50 ng/ml LPS for 4 hours. Expression levels of TNF, IL1β, Ccl2, and IL6 are measured. Normalized mRNA levels are shown as change from vehicle (ΔΔCt) and compared using a one-way ANOVA. […] The mRNA transcripts for TNF, IL1β, and Ccl2—three of the four cytokines studied in vivo—were elevated in BV2 cells treated with 50 ng/ml LPS.
(§1) The test compound is added first, the LPS is added one hour later, and the cells and/or media are harvested at five hours from commencement of the experiment.
Cells: BV2 mouse microglial cell line (ICLC, Italy) grown in 2% or 10% heat-inactivated FBS.
(§2) RTqPCR: RNA from BV2 cells purified using RNeasyKit (Qiagen) and from mouse tissue using TRIzol (Ambion). TaqMan primer-probe assays from Thermo Fisher. mRNA levels for all conditions are normalized to GAPDH and to vehicle control (ΔΔCt). Data are analyzed statistically using one-way ANOVA with the Bonferroni post-test for multiple comparisons.

BV2 cells [3] = experiment: LPS-induced TNFα release from BV2 cells (ELISA); assay type: cell-based, mouse; conditions: 50 ng/ml LPS stimulation, FIG. 4
Method: TNFα release: TNFα levels are measured in BV2 conditioned media and normalized to cell protein levels. Inhibition of LPS-induced TNFα release from BV2 cells is depicted in FIG. 4.
as §1
TNFα ELISA: Thermo Fisher mouse TNFα colorimetric, sandwich ELISA kit. Interpolate values from standard curve. Dose response is fit to a 4-parameter logistic curve.

mouse striatum [4] = experiment: LPS-induced inflammatory gene expression in mouse striatum (Q-PCR); assay type: in vivo
Method: as §2
Data from yet another experiment measuring the effect of PDE1 inhibition on inflammatory gene expression in mouse striatum is depicted in FIG. 6. […] Striatal tissue is analyzed for mRNA levels of TNF, IL1β, Ccl2, and IL6. Expression levels are shown as change in Q-PCR signal from vehicle (ΔΔCt) and compared using an ANOVA. * p<0.05, **p<0.01, ***p<0.001.
The Applicants measure mRNA levels of four common inflammatory markers (TNF, IL1β, Ccl2, and IL6) using quantitative PCR (FIG. 7).

BV2 cells [5] = experiment: cAMP (ELISA) and P-VASP S157 (Western blot) in BV2 cells with ADP; assay type: cell-based, mouse; conditions: for P-VASP level at baseline / cAMP level at baseline: no ADP stimulation
Method: Cell lysates on a Western were blotted with an antibody to phosphorylated VASP at S157, and the intensity of the resulting bands were measured (as raw signal). […] There was no effect of PDE1 inhibition at baseline, consistent with the hypothesis that PDE1 is important under conditions of stimulation. […] As with cAMP, PDE1 activity (sensitive to ITI-214) appears to contribute about 50% to the total PDE activity (sensitive to IBMX) under conditions of stimulation while having no contribution at baseline. The dose dependent nature of the increase in cAMP is illustrated in FIG. 9.

[6] = test system: primary cultured microglia; experiment: VASP phosphorylation in primary cultured rat microglia; assay type: cell-based; conditions: 1 μM
Method: The above results were replicated in primary cultured microglia isolated from P2 rat whole brain (FIG. 10). Microglia were grown in culture for 12 days in serum-free media containing TGFb2, IL34, and cholesterol. The cells maintained properties in culture consistent with quiescent microglial-like cells, staining positive for Iba1 and maintaining a branched morphology.

[7] = test system: CT26 colorectal carcinoma cells; experiment: CT26 colorectal carcinoma engrafted subcutaneously in mice; assay type: in vivo, mouse; conditions: for number of macrophages (CD45 positive) in the tumor microenvironment: 50 mg/kg, i.p., once daily
Method: Mice were engrafted subcutaneously with CT26 colorectal carcinoma cells. Control mice were administered 150 μg IgG (Isotype).

BV2 cells [8] = experiment: Quantitative PCR of inflammatory cytokine mRNA in LPS-stimulated BV2 cells; assay type: cell-based, mouse; conditions: LPS 10 microgram/ml, Compound 214 10 microgram/ml, FIG. 2
mouse striatum [9] = experiment: LPS-induced inflammatory gene expression in mouse striatum (Q-PCR); assay type: in vivo; conditions: initial results
bovine brain PDE1 = target: T1, bovine brain PDE1 (Bos taurus, UniProt Q01061); experiment: IMAP phosphodiesterase assay, PDE1; assay type: biochemical
T1 construct: IC50; other: bovine brain PDE1; Ki; other: bovine brain PDE1 assay
Excerpt: Briefly, the IMAP reagent binds with high affinity to the free 5′-phosphate that is found in GMP-fluorescein and not in cGMP-fluorescein. The resulting GMP-fluorescein-IMAP complex is large relative to cGMP-fluorescein. Small fluorophores that are bound up in a large, slowly tumbling, complex can be distinguished from unbound fluorophores, because the photons emitted as they fluoresce retain the same polarity as the photons used to excite the fluorescence.
The PDE1 enzyme is reconstituted with 50% glycerol to 2.5 U/ml. […] The compounds are mixed and pre-incubated with the enzyme for 10 min at room temperature.
The reaction is incubated in dark at room temperature for 15 min.

HL60 cells = experiment: cGMP levels in PMA-differentiated HL60 cells with ANP and ionomycin (competitive ELISA); assay type: cell-based, human
Method: We have shown that there is a synergistic effect between ANP and PDE1 inhibition. An immortalized human pro-myeloid cell line (HL60 from ATCC) is grown, differentiated and harvested as described in Bender, A T, and Beavo, J A, 2006, PNAS 103, 460-465. The cells are grown in HEPES buffered RPMI 1640 medium with penicillin, streptomycin, and 10% fetal bovine serum. Phorbol-12-myristate-13-acetate (PMA), at 100 nM for 3 days, is used to differentiate the HL60 cells into macrophage-like cells. Following differentiation, the cells are incubated with a PDE1 inhibitor or vehicle (DMSO) beginning at time 0. At 40 minutes, 5 μM ionomycin (a calcium ionophore) is added. At 50 minutes, 100 nM ANP was added. At 60 minutes, the cells are harvested. Total cGMP levels are measured using a competitive ELISA (Bender and Beavo, 2006).
[drawing 33] is tested for its effect on cGMP levels in this system. […] In addition, the cGMP level attained by co-treatment with ANP and the PDE1 inhibitor is much greater than that obtained by co-treatment with ANP and a mixed PDE1/PDE5 inhibitor, SCH 51866 (used at 5 μM). In this experiment, the calcium ionophore ionomycin (used at 5 μM) is used to raise the intracellular calcium level and to counteract the cGMP rise induced by ANP.

[10] = 10 μM, 50 ng/ml LPS for 4 hours, FIG. 3b
[11] = 10 mg/kg i.p., 500 μg/kg LPS s.c., 2 hours
[12] = 10 mg/kg i.p., 500 μg/kg LPS s.c., 2 hours, does not reach significance
[13] = Striatum Mouse + LPS, Q-PCR, initial results

T1 sequence (Q01061 whole entry): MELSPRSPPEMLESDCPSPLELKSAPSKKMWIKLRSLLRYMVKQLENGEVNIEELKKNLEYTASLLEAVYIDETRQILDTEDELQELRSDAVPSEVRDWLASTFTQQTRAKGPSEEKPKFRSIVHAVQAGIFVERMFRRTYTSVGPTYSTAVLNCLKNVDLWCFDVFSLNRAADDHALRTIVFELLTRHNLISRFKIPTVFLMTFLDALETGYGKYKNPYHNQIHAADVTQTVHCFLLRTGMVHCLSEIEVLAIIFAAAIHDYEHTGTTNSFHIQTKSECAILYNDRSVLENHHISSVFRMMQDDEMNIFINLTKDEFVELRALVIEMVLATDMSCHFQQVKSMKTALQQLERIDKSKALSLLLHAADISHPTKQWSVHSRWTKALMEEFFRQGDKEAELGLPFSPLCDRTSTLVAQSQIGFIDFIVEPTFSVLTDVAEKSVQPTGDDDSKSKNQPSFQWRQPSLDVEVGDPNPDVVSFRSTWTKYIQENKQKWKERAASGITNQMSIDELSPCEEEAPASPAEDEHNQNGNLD
P2Y12, sequence (Q9H244 whole entry, species assumed): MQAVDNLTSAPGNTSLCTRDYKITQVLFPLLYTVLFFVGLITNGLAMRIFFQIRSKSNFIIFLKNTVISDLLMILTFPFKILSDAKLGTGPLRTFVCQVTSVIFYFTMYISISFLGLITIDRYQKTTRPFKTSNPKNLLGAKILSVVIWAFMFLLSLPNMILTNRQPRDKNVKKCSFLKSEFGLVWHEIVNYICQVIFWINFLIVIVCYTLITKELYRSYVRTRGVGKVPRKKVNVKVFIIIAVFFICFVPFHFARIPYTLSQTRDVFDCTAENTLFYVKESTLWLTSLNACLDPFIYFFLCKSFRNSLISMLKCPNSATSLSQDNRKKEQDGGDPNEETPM

Structure (SMILES): CCCSc1nc(N)c2ncn([C@@H]3O[C@H](COP(=O)(O)OP(=O)(O)C(F)(F)P(=O)(O)O)[C@@H](O)[C@H]3O)c2n1 [AR-C 66096, reference compound]
- chemotaxis of BV2 cells toward ADP (BV2 cells [1]): inhibited ADP induced migration
- IC50 (P2Y12): 6.9 nM

Structure (SMILES): CSCCNc1nc(SCCC(F)(F)F)nc2c1ncn2[C@@H]1O[C@H](COP(=O)(O)OP(=O)(O)C(Cl)(Cl)P(=O)(O)O)[C@@H](O)[C@H]1O [AR-C 69931, reference compound]
- chemotaxis of BV2 cells toward ADP (BV2 cells [1]): inhibited ADP induced migration

Structure (SMILES): CN1C(=O)c2c(nn(Cc3ccc(-c4cccc(F)n4)cc3)c2Nc2ccccc2)N2C1=N[C@@H]1CCC[C@@H]12 [Compound 214]
- Ccl2 mRNA signal (BV2 cells [2]; [10]): significantly decreased
- IL1β mRNA signal (BV2 cells [2]; [10]): trended downward
- TNF mRNA signal (BV2 cells [2]; [10]): significantly decreased
- LPS-induced expression of Ccl2 (BV2 cells [2]; 10 μM): significantly reduces
- LPS-induced expression of IL1β (BV2 cells [2]; 10 μM): significantly reduces
- LPS-induced expression of TNFα (BV2 cells [2]; 10 μM): significantly reduces
- Chemokine (C—C) motif Ligand 2 expression (BV2 cells [2]): Down
- Interleukin 1 beta expression (BV2 cells [2]): Down
- Tumor necrosis factor expression (BV2 cells [2]): Down
- LPS-induced TNFα release (BV2 cells [3]): dose-dependent inhibition
- striatal mRNA expression of Ccl2 (mouse striatum [4]; [11]): attenuates
- striatal mRNA expression of TNF (mouse striatum [4]; [11]): attenuates
- LPS-induced inflammatory gene expression changes in mice (mouse striatum [4]; 10 mg/kg i.p., 500 μg/kg LPS s.c., 2 hours, FIG. 6): prevents
- striatal mRNA level of IL1-beta (mouse striatum [4]; [12]): trended to lower levels
- striatal mRNA level of IL6 (mouse striatum [4]; [12]): trended to lower levels
- Chemokine (C—C) motif Ligand 2 expression (mouse striatum [4]; [13]): Down
- chemotaxis of BV2 cells toward ADP (BV2 cells [1]): inhibits
- chemotaxis of BV2 cells toward ADP (BV2 cells [1]; listed as compound 214): reduced chemotaxis of BV2 cells toward 100 μM ADP in a dose-dependent manner
- ADP-induced elevation in cAMP (BV2 cells [5]; 30 min pretreatment, ADP for 5 minutes, ELISA): significantly augmented
- ADP-induced P-VASP at serine 157 (BV2 cells [5]; 30 min pretreatment, ADP for 5 minutes, Western blot): significantly augmented
- P-VASP level at baseline (BV2 cells [5]): no effect
- cAMP level at baseline (BV2 cells [5]): no effect
- VASP phosphorylation under basal conditions [6]: little effect
- increase in VASP phosphorylation after ADP ([6]; 100 μM ADP for 5 mins): significantly enhanced
- percentage of responders (tumor volume <500 mm3) ([7]; 1 mg, 5 days a week starting at day 7, alone): increase
- number of macrophages (CD45 positive) in the tumor microenvironment ([7]; alone): significantly reduced
- number of macrophages (CD45 positive) in the tumor microenvironment ([7]; in combination with an anti-PD1 antibody): significantly reduced
- percentage of responders (tumor volume <500 mm3) ([7]; in combination with 150 μg Anti-PD-1 (RMP1-14) on days 7, 11, 14, 17): increase
- LPS-induced increase in expression of IL1β mRNA (BV2 cells [8]): significantly blunts; also recorded: suppresses
- Oncostatin M expression (mouse striatum [9]): Down

Structure (SMILES): CN1C(=O)c2c(nn(Cc3ccc(C(F)(F)F)cc3)c2Nc2ccccc2)N2C1=N[C@@H]1CCC[C@@H]12 [Example 20 of U.S. Pat. No. 8,273,750, (6aR,9aS)-3-(phenylamino)-5,6a,7,8,9,9a-hexahydro-5-methyl-2-(4-(trifluoromethyl)-benzyl)-cyclopent[4,5]imidazo[1,2-a]pyrazolo[4,3-e]pyrimidin-4(2H)-one]
- Ki (bovine brain PDE1): 0.68 nM
- cGMP level induced in HL60 cells (HL60 cells; 100 nM ANP + 100 nM PDE1 inhibitor, compared with ANP alone or inhibitor alone): greater than that induced by either the ANP alone or the PDE1 inhibitor alone
- effect of ionomycin on cGMP (HL60 cells; 5 μM ionomycin combined with ANP and the PDE1 inhibitor): only a weak cGMP lowering effect
- cGMP level attained by co-treatment with ANP (HL60 cells; compared with co-treatment with ANP and SCH 51866 (5 μM)): much greater

Structure (SMILES): CC(C)Cn1c(=O)n(C)c(=O)c2[nH]cnc21 [IBMX, reference compound]
- P-VASP level at baseline (BV2 cells [5]): did elevate
- cAMP level at baseline (BV2 cells [5]): did elevate

Structure (SMILES): COc1ccc(C2CNC(=O)C2)cc1OC1CCCC1 (centres unmarked) [rolipram, reference compound]
- LPS-induced expression of Ccl2 (BV2 cells [2]; 10 μM): reducing
- LPS-induced expression of IL1β (BV2 cells [2]; 10 μM): increasing
- LPS-induced expression of TNFα (BV2 cells [2]; 10 μM): reducing
- Chemokine (C—C) motif Ligand 2 expression (BV2 cells [2]): Down
- Interleukin 1 beta expression (BV2 cells [2]): UP UP
- Tumor necrosis factor expression (BV2 cells [2]): Down
- Chemokine (C—C) motif Ligand 2 expression (mouse striatum [4]; [13]): Down
- Interleukin 1 beta expression (mouse striatum [4]; [13]): UP-UP
- Interleukin 6 expression (mouse striatum [4]; [13]): UP-UP
- Tumor necrosis factor expression (mouse striatum [4]; [13]): Down
- Oncostatin M expression (mouse striatum [9]): Down
